Legend:
Assay type in all cases: cell-based
[1] = biological target: T1, ENL (Homo sapiens, UniProt Q03111); assay: Western blot of ENL protein levels in MV4; 11 cells
T1 construct: Cells were lysed and expression of endogenous ENL was assessed by Western blot analysis; host or cells: MV4;11
T1 sequence (Q03111 1-559): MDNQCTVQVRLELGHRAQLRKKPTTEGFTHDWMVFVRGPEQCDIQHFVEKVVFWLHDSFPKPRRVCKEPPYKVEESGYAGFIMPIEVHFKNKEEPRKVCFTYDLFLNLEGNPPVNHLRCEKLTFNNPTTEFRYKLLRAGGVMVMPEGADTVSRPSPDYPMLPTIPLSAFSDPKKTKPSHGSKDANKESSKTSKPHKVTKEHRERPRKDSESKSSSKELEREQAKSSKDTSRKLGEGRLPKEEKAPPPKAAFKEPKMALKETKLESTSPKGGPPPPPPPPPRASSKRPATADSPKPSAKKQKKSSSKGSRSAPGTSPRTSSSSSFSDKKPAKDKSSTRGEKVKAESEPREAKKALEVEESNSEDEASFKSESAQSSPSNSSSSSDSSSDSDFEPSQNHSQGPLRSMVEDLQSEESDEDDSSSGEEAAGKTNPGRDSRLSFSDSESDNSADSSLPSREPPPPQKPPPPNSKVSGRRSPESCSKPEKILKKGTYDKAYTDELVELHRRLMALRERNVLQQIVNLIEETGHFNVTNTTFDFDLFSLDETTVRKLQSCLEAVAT
Experimental: MV4; 11 cells were treated with DMSO or the indicated compounds (the same panel of ENL degraders as shown in FIG. 4) at 1 μM and 10 μM for 24 h. Cells were lysed and expression of ENL was assessed by Western blot analysis.
DMSO treated cells were used as control.
MV4; 11 cells were treated with LQ076-122, or LQ081-107 at 0.3, 1, 3, 10, and 30 μM for 24 h. DMSO treated cells were used as control. Cells were lysed and expression of ENL and GAS41 was assessed by Western analysis.
MV4; 11 cells were treated with DMSO or the indicated compounds at 1 μM and 10 μM for 6 h. Cells were lysed and expression of endogenous ENL was assessed by Western blot analysis.
Cells were treated with 1 μM of ENL degrader with or without 1 μM proteasome inhibitor MG132 for 6 h.
(§1) ENL degraders were dissolved in DMSO. DMSO with no degraders was used as the control. 1×10^6 leukemia cells were seeded in 5 mL medium. For prescreening of compounds, each test compound was added to the medium at 1 μM and 10 μM. Cells were collected after 24 h treatment. For the concentration-dependent treatment, candidate compounds were added to the medium at a series of concentration as indicated in figures. Cells were collected after 24 h treatment. For the time-course treatment, candidate compounds were added to the medium at a final concentration of 4 μM (MV4; 11 cells) or 8 μM (MOLM13 cells). Cells were collected at the indicated timepoints (in hours: 12, 16, 20, 24 and 36 h).
(§2) After ENL degrader treatment, cells were collected, lysed, and total cell lysates were used for Western blot. The following primary antibodies were used: ENL (Cell Signaling Technology), GAS41 (Santa Cruz), GAPDH (Santa Cruz), β-actin (Sigma). Blots were detected using HRP-conjugated secondary antibodies.

[2] = tested on: ENL target genes; assay: RT-qPCR of ENL target genes in MOLM13 cells
Experimental: MOLM13 cells were treated with LQ076-122 (FIG. 14A) and LQ081-108 (FIG. 14B) at 0.5, 1, 2, 4, and 8 μM for 24 h. […] RT-qPCR analysis was performed to detect the mRNA levels of selected ENL target genes.
Total RNA was extracted using the RNeasy Plus kit (Qiagen) and reverse-transcribed using the iScript cDNA Synthesis kit (Bio-Rad). RT-qPCR was performed using the Power SYBR Green PCR Master Mix (Applied Biosystems) on the CFX96 Real-Time PCR system (Bio-Rad). Gene expressions were calculated following normalization to 18s rRNA amounts using the comparative cycle threshold (Ct) method.

[3] = biological target: T1, ENL; assay: Western blot of ENL protein levels in MOLM13 cells
Experimental: MOLM13 cells were treated with LQ076-122 or LQ081-108 at 0, 0.25, 0.5, 1, 1.5, 2, 2.5, 3, 4 and 8 μM for 24 h.
MOLM13 cells were treated with DMSO or 8 μM of LQ076-122 for 12, 16, 20, 24 and 36 h.
MV4; 11, MOLM13 and Jurkat cells were treated with LQ108-69, LQ108-71, LQ108-72, LQ126-62 and LQ126-63 at 0, 1 nM, 10 nM, 100 nM, 1 μM, and 10 μM doses for 6 h. DMSO was used as negative control.
as §1, §2

[4] = biological target: T1, ENL; assay: Western blot of ENL protein levels in Jurkat cells
Text: […] DMSO was used as negative control.
as §2

[5] = tested on: ENL-dependent MV4; 11 cells; assay: Cell viability (CellTiter-Glo), MV4; 11 cells
Experimental: (§3) MV4; 11 (FIG. 13A), MOLM13 (FIG. 13B) and Jurkat (FIG. 13C) cells were seeded at 2×10^5 cells/mL density and treated with DMSO or indicated compounds 0.5, 1, 2 and 4 μM for 72 h. Cell viability was measured using CellTiter-Glo reagent (Promega) and relative cell viability was calculated by normalization to DMSO samples.
(§4) ENL-dependent MV4; 11 cells were seeded at 2×10^5 cells/mL density and treated with DMSO or the indicated compounds at 0, 1.25, 2.5, 5 and 10 μM for 72 h. Cell viability was measured using CellTiter-Glo reagent (Promega) and relative cell viability was calculated by normalization to DMSO samples.
as §4, with “11 and ENL-independent Jurkat” for “11”, “or” for “or the”, “10 nM, 100 nM, 1 μM” for “0, 1.25, 2.5, 5”, “3 days (A) or 6 days (B).” for “72 h.”
(§5) MV4; 11 or MOLM13 cells were seeded at 0.2×10^6 cells/mL density. Cells were treated with DMSO or ENL degraders at indicated concentrations. Each treatment was done in triplicates. After 72 h treatment, 100 μL of cell suspension from each treatment was mixed with 25 μL of CellTiter-Glo reagent (Promega) and incubated for 10 min before the luminescence signals were detected on a plate reader.

[6] = tested on: ENL-independent Jurkat cells; assay: Cell viability (CellTiter-Glo), Jurkat cells
Experimental: as §3
as §4, with “11 and ENL-independent Jurkat” for “11”, “or” for “or the”, “10 nM, 100 nM, 1 μM” for “0, 1.25, 2.5, 5”, “3 days (A) or 6 days (B).” for “72 h.”

[7] = tested on: ENL-dependent MOLM13 leukemia cells; assay: Cell viability (CellTiter-Glo), MOLM13 cells; details: MOLM13 cells, 0.5, 1, 2 and 4 μM for 72 h
Experimental: as §3, §5

[8] = 11 cells, 0.3, 1, 3 and 10 μM for 12 and 24 h
[9] = 11 cells, 0.5, 1, 2 and 4 μM for 72 h
[10] = Jurkat cells, 0.5, 1, 2 and 4 μM for 72 h

Compound	reduction of ENL protein levels [1, 8]	suppression of cell growth (relative cell viability) [5, 9]	suppression of cell growth (relative cell viability) [7]	suppression of cell growth (relative cell viability) [6, 10]	also measured
Cc1ncsc1-c1ccc(CNC(=O)[C@H]2C[C@H](O)CN2C(=O)[C@@H](NC(=O)CCCCCCCCCCNC(=O)c2ccc(C(=O)Nc3ccc4[nH]c(CN5CCC[C@@H]5C)nc4c3)cc2)C(C)(C)C)cc1 [LQ081-107]	did not affect ENL protein levels	–	–	–	ENL target gene expression (mRNA levels) ([2]; MOLM13 cells, 8 μM for 24 h): did not dramatically affect these genes
Cc1ncsc1-c1ccc(CNC(=O)[C@@H]2C[C@@H](O)CN2C(=O)[C@@H](NC(=O)CCCCCCCCCCNC(=O)c2ccc3c(c2)[C@H](NC(=O)c2cc(-c4ccc(C(=O)N(C)C)c(O)c4)on2)CC3)C(C)(C)C)cc1 [LQ126-63, 5-(4-(dimethylcarbamoyl)-3-hydroxyphenyl)-N—((R)-6-((11-(((S)-1-((2S,4R)-4-hydroxy-2-((4-(4-methylthiazol-5-yl)benzyl)carbamoyl)pyrrolidin-1-yl)-3,3-dimethyl-1-oxobutan-2-yl)amino)-11-oxoundecyl)carbamoyl)-2,3-dihydro-1H-inden-1-yl)isoxazole-3-carboxamide]	–	–	–	–	reduction of ENL protein levels ([1]; 11 cells, 1 nM to 10 μM for 6 h): reduced ENL protein levels in a concentration-dependent manner; effect of proteasome inhibitor MG132 on the ENL degradation induced by the degrader ([1]; 11 cells, 1 μM degrader with or without 1 μM MG132 for 6 h): partially blocks the ENL degradation; ENL protein level after long treatment ([1]; 11 cells, 1 μM for 48 and 72 h): maintained the ENL protein at low levels; reduction of ENL protein levels ([3]; 1 nM to 10 μM for 6 h): reduced ENL protein levels in a concentration-dependent manner; ENL protein level after long treatment ([3]; 1 μM for 48 and 72 h): maintained the ENL protein at low levels; reduction of ENL protein levels ([4]; 1 nM to 10 μM for 6 h): reduced ENL protein levels in a concentration-dependent manner; ENL protein level after long treatment ([4]; 1 μM for 48 and 72 h): maintained the ENL protein at low levels; suppression of cell growth (relative cell viability) ([5]; 11 cells, 100 nM dose, 3 days and 6 days): strongly suppressed MV4; 11 cell growth; suppression of cell growth (relative cell viability) ([5]; 11 cells, 1.25, 2.5, 5 and 10 μM for 72 h): significantly suppressed MV4; 11 cell growth at low micromolar concentration; suppression of cell growth (relative cell viability) ([6]; Jurkat cells, 10 nM to 10 μM, 3 days and 6 days): did not affect the growth of ENL-independent Jurkat cells
Cc1ncsc1-c1ccc([C@H](C)NC(=O)[C@H]2C[C@H](O)CN2C(=O)[C@@H](NC(=O)CCCCCCCCCCCNC(=O)c2ccc(C(=O)Nc3ccc4[nH]c(CN5CCC[C@@H]5C)nc4c3)cc2)C(C)(C)C)cc1 [LQ081-158]	–	did not significantly affect cell growth	did not significantly affect cell growth	did not significantly affect cell growth	–
Cc1ncsc1-c1ccc([C@H](C)NC(=O)C2C[C@@H](OCc3ccccc3)CN2C(=O)[C@@H](NC(=O)CCCCCCCCCCCNC(=O)c2ccc(C(=O)Nc3ccc4[nH]c(CN5CCC[C@@H]5C)nc4c3)cc2)C(C)(C)C)cc1 (stereo partly drawn) [LQ108-142]	–	did not significantly affect cell growth	did not significantly affect cell growth	did not significantly affect cell growth	–
Cc1ncsc1-c1ccc([C@H](C)NC(=O)[C@@H]2C[C@@H](OCc3ccccc3)CN2C(=O)[C@@H](NC(=O)CCCCCCCCCCNC(=O)c2ccc(C(=O)Nc3ccc4[nH]c(CN5CCC[C@@H]5C)nc4c3)cc2)C(C)(C)C)cc1 [LQ108-141]	–	did not significantly affect cell growth	did not significantly affect cell growth	did not significantly affect cell growth	–
Cc1ncsc1-c1ccc([C@H](C)NC(=O)[C@H]2C[C@H](O)CN2C(=O)[C@@H](NC(=O)CCCCCCCCCCNC(=O)c2ccc(C(=O)Nc3ccc4[nH]c(CN5CCC[C@@H]5C)nc4c3)cc2)C(C)(C)C)cc1 [LQ081-106]	did not affect ENL protein levels	did not significantly affect cell growth	did not significantly affect cell growth	did not significantly affect cell growth	ENL target gene expression (mRNA levels) ([2]; MOLM13 cells, 8 μM for 24 h): did not dramatically affect these genes
Cc1ncsc1-c1ccc([C@H](C)NC(=O)[C@@H]2C[C@@H](O)CN2C(=O)[C@@H](NC(=O)CCCCCCCCCCNC(=O)c2ccc(C(=O)Nc3ccc4[nH]c(CN5CCC[C@@H]5C)nc4c3)cc2)C(C)(C)C)cc1 [LQ081-108, N^1-(11-(((S)-1-((2S,4R)-4-hydroxy-2-(((S)-1-(4-(4-methylthiazol-5-yl)phenyl)ethyl)carbamoyl)pyrrolidin-1-yl)-3,3-dimethyl-1-oxobutan-2-yl)amino)-11-oxoundecyl)-N^4-(2-(((S)-2-methylpyrrolidin-1-yl)methyl)-1H-benzo[d]imidazol-5-yl)terephthalamide]	reduced ENL protein levels in a concentration- and time-dependent manner	selectively suppressed cell growth	selectively suppressed cell growth	–	reduction of ENL protein levels ([1]; 11 cells, 0-8 μM for 24 h): reduced ENL protein levels in a concentration-dependent manner; reduction of ENL protein levels ([1]; 11 cells, 10 μM, 24 h): effective in reducing ENL protein levels; reduction of ENL protein levels ([3]; 0-8 μM for 24 h): reduced ENL protein levels in a concentration-dependent manner; ENL target gene expression (mRNA levels) ([2]; MOLM13 cells, 0.5, 1, 2, 4 and 8 μM for 24 h): reduced ENL target gene expression in a concentration-dependent manner

Source: US20230391765A1, “HETEROBIFUNCTIONAL COMPOUNDS AS DEGRADERS OF ENL” (ICAHN SCHOOL OF MEDICINE AT MOUNT SINAI, priority 2020, published 2023)
